Source: patent US12146004B2, “Polymyxin compounds and uses thereof” (priority 2014, dated 2024)
Values after ≈ are worked out from the molar mass of the structure shown. Like-named read-outs stand apart in the source and are kept apart here. Numbered stars: 1 amine (or outer) side, 2 acyl side, 3 side chain; on linkers, the order of the positions; unused ones are H or OH. Bridge positions count the residues as written; N and C are the ends. Square brackets hold non-standard residues; d marks the D form. Peptide text beside a SMILES is read from it. * marks the point of attachment. ξ: configuration not given here. X12 = O=C([C@@H](Cc1ccc(C2CCCCC2)cc1)N[*:1])[*:2]; dBip = N[C@H](Cc1ccc(-c2ccccc2)cc1)C(=O)O; X13 = NCC[C@H](OCc1ccc(Cl)cc1)C(=O)*; Octanoyl(6-Me) = CCC(C)CCCCC(=O)*; X3 = CCCCCCCCN1CCNC[C@H]1C(=O)*; dCha = N[C@H](CC1CCCCC1)C(=O)O; Thr(3ξ) = CC(O)[C@H](N)C(=O)O; X7 = NCC(CC(=O)*)c1ccccc1; X8 = NCC(C(=O)*)C1CCCCC1; Dab = NCC[C@H](N)C(=O)O; Dap = NC[C@H](N)C(=O)O; X2 = CC(C)CC(CN)C(=O)*

What was measured:
Format in all cases: cell-based
Acinetobacter baumannii = tested on: Acinetobacter baumannii
In short: (§1)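 Values are minimum inhibitory concentrations in μg/mL, measured across a panel of up to nine strains of each Gram-negative pathogen, some Polymyxin-elevated or resistant.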

Pseudomonas aeruginosa = tested on: Pseudomonas aeruginosa
In short: as §1

Escherichia coli = tested on: Escherichia coli
In short: as §1

Klebsiella pneumoniae = tested on: Klebsiella pneumoniae
In short: as §1

HK-2 cells = tested on: HK-2 cells
Text: Values are reported relative to Polymyxin B.

Row | Structure (SMILES) | MIC A. baumanii 053 (Acinetobacter baumannii) | MIC A. baumanii 056 (Acinetobacter baumannii) | MIC A. baumanii ATCC BAA-747 (Acinetobacter baumannii) | MIC P. aeruginosa 068 (Pseudomonas aeruginosa) | MIC P. aeruginosa 070 (Pseudomonas aeruginosa) | MIC P. aeruginosa ATCC 27853 (Pseudomonas aeruginosa) | MIC E. coli 058 (Escherichia coli) | MIC E. coli 061 (Escherichia coli) | MIC E. coli ATCC 25922 (Escherichia coli) | MIC K. pneumoniae 063 (Klebsiella pneumoniae) | MIC K. pneumoniae ATCC 4352 (Klebsiella pneumoniae) | HK-2 IC50 (HK-2 cells) | MIC K. pneumoniae 065 (Klebsiella pneumoniae) | MIC A. baumanii NCTC 13424 (Acinetobacter baumannii) | MIC P. aeruginosa CCUG 59347 (Pseudomonas aeruginosa) | other results
1 | CC(C)CC(CN)C(=O)N[C@H](C(=O)N[C@@H](CCN)C(=O)N[C@H]1CCNC(=O)[C@H]([C@@H](C)O)NC(=O)[C@H](CCN)NC(=O)[C@H](CCN)NC(=O)[C@H](CC(C)C)NC(=O)[C@@H](CC2CCCCC2)NC(=O)[C@H](CCN)NC1=O)C(C)O (some centres unmarked) [Example 21] (X2-[Thr(3ξ)][Dab][Dab][Dab][dCha]L[Dab][Dab]T; lactam 3-C) | >64 µg/mL | 64 µg/mL (≈ 58.4 µM) | 0.5 µg/mL (≈ 0.456 µM) | 32 µg/mL (≈ 29.2 µM) | 32 µg/mL (≈ 29.2 µM) | 0.5 µg/mL (≈ 0.456 µM) | 8 µg/mL (≈ 7.3 µM) | 32 µg/mL (≈ 29.2 µM) | 0.25 µg/mL (≈ 0.228 µM) | 64 µg/mL (≈ 58.4 µM) | 0.25 µg/mL (≈ 0.228 µM) | 83 µg/mL |  |  |  | MIC E. coli 059 (Escherichia coli): 16 µg/mL (≈ 14.6 µM); MIC E. coli 060 (Escherichia coli): 8 µg/mL (≈ 7.3 µM); MIC K. pneumoniae 062 (Klebsiella pneumoniae): 16 µg/mL (≈ 14.6 µM); MIC K. pneumoniae 064 (Klebsiella pneumoniae): 8 µg/mL (≈ 7.3 µM); MIC K. pneumoniae 066 (Klebsiella pneumoniae): 16 µg/mL (≈ 14.6 µM); MIC K. pneumoniae 067 (Klebsiella pneumoniae): >64 µg/mL
2 | CCC(C)CCCCC(=O)N[C@@H](CCN)C(=O)N[C@H](C(=O)N[C@@H](CCN)C(=O)N[C@H]1CCNC(=O)[C@H](C(C)O)NC(=O)[C@H](CCN)NC(=O)[C@H](CCN)NC(=O)[C@H](CC(C)C)NC(=O)[C@@H](CC2CCCCC2)NC(=O)[C@H](CCN)NC1=O)C(C)O (some centres unmarked) [Example 22] ({Octanoyl(6-Me)}-[Dab][Thr(3ξ)][Dab][Dab][Dab][dCha]L[Dab][Dab][Thr(3ξ)]; lactam 4-C) | 64 µg/mL (≈ 52.9 µM) | 32 µg/mL (≈ 26.5 µM) | 0.5 µg/mL (≈ 0.413 µM) | 4 µg/mL (≈ 3.31 µM) | 4 µg/mL (≈ 3.31 µM) | 1 µg/mL (≈ 0.827 µM) | 2 µg/mL (≈ 1.65 µM) | 8 µg/mL (≈ 6.61 µM) | 0.5 µg/mL (≈ 0.413 µM) | 32 µg/mL (≈ 26.5 µM) | 0.5 µg/mL (≈ 0.413 µM) | 17 µg/mL | 1 µg/mL (≈ 0.827 µM) |  |  | MIC E. coli 059 (Escherichia coli): 2 µg/mL (≈ 1.65 µM); MIC E. coli 060 (Escherichia coli): 4 µg/mL (≈ 3.31 µM); MIC K. pneumoniae 062 (Klebsiella pneumoniae): 16 µg/mL (≈ 13.2 µM); MIC K. pneumoniae 064 (Klebsiella pneumoniae): 4 µg/mL (≈ 3.31 µM); MIC K. pneumoniae 066 (Klebsiella pneumoniae): 4 µg/mL (≈ 3.31 µM); MIC K. pneumoniae 067 (Klebsiella pneumoniae): 64 µg/mL (≈ 52.9 µM)
3 | CC(C)CC(CN)C(=O)N[C@H](C(=O)N[C@@H](CN)C(=O)N[C@H]1CCNC(=O)[C@H]([C@@H](C)O)NC(=O)[C@H](CCN)NC(=O)[C@H](CCN)NC(=O)[C@H](CC(C)C)NC(=O)[C@@H](Cc2ccc(C3CCCCC3)cc2)NC(=O)[C@H](CCN)NC1=O)C(C)O (stereo partly drawn) [Example 27, 2-(Aminomethyl)-4-methylpentanoyl L-Thr-L-Dap-polymyxin [D-(4-cyclohexyl Phe)]-6 heptapeptide] (X2-[Thr(3ξ)][Dap][Dab][Dab][X12]L[Dab][Dab]T; lactam 3-C) | 8 µg/mL (≈ 6.91 µM) | 4 µg/mL (≈ 3.45 µM) | 0.5 µg/mL (≈ 0.432 µM) | 4 µg/mL (≈ 3.45 µM) | 2 µg/mL (≈ 1.73 µM) | 0.5 µg/mL (≈ 0.432 µM) | 2 µg/mL (≈ 1.73 µM) | 8 µg/mL (≈ 6.91 µM) | 0.5 µg/mL (≈ 0.432 µM) | 8 µg/mL (≈ 6.91 µM) | 0.25 µg/mL (≈ 0.216 µM) | 18 µg/mL | 0.5 µg/mL (≈ 0.432 µM) | 0.25 µg/mL (≈ 0.216 µM) | 1 µg/mL (≈ 0.863 µM) | MIC E. coli NCTC 9001 (Escherichia coli): 0.5 µg/mL (≈ 0.432 µM)
4 | CC(C)C[C@@H]1NC(=O)[C@@H](CC2CCCCC2)NC(=O)[C@H](CCN)NC(=O)[C@@H](NC(=O)[C@H](CN)NC(=O)[C@@H](NC(=O)C(CN)C2CCCCC2)C(C)O)CCNC(=O)[C@H]([C@@H](C)O)NC(=O)[C@H](CCN)NC(=O)[C@H](CCN)NC1=O (stereo partly drawn) [Example 28, 3-Amino-2-cyclohexylpropanoyl L-Thr-L-Dap-polymyxin [D-cyclohexylalanine]-6 heptapeptide] (X8-[Thr(3ξ)][Dap][Dab][Dab][dCha]L[Dab][Dab]T; lactam 3-C) | 16 µg/mL (≈ 14.4 µM) | 4 µg/mL (≈ 3.61 µM) | 0.06 µg/mL (≈ 0.0541 µM) | 4 µg/mL (≈ 3.61 µM) | 4 µg/mL (≈ 3.61 µM) | 0.25 µg/mL (≈ 0.226 µM) | 1 µg/mL (≈ 0.902 µM) | 8 µg/mL (≈ 7.22 µM) | 0.25 µg/mL (≈ 0.226 µM) | 8 µg/mL (≈ 7.22 µM) | 0.125 µg/mL (≈ 0.113 µM) | 86 µg/mL | 1 µg/mL (≈ 0.902 µM) | 0.125 µg/mL (≈ 0.113 µM) | 0.5 µg/mL (≈ 0.451 µM) | MIC E. coli NCTC 9001 (Escherichia coli): 0.125 µg/mL (≈ 0.113 µM)
5 | CC(C)C[C@@H]1NC(=O)[C@@H](CC2CCCCC2)NC(=O)[C@H](CCN)NC(=O)[C@@H](NC(=O)[C@H](CN)NC(=O)[C@@H](NC(=O)CC(CN)c2ccccc2)C(C)O)CCNC(=O)[C@H]([C@@H](C)O)NC(=O)[C@H](CCN)NC(=O)[C@H](CCN)NC1=O (stereo partly drawn) [Example 39, 4-amino-3-phenylbutanoyl L-Thr-L-Dap-polymyxin [D-cyclohexylalanine]-6 heptapeptide.] (X7-[Thr(3ξ)][Dap][Dab][Dab][dCha]L[Dab][Dab]T; lactam 3-C) |  |  |  |  |  |  |  |  |  |  |  |  |  |  |  | MIC A. baumanii 053 (Acinetobacter baumannii; strain 053): 32 µg/mL (≈ 28.7 µM); MIC A. baumanii 056 (Acinetobacter baumannii; strain 056): 64 µg/mL (≈ 57.3 µM); MIC A. baumanii ATCC BAA-747 (Acinetobacter baumannii; strain ATCC BAA-747): 0.06 µg/mL (≈ 0.0537 µM); MIC A. baumanii NCTC 13424 (Acinetobacter baumannii; strain NCTC 13424): 0.03 µg/mL (≈ 0.0269 µM); MIC P. aeruginosa 068 (Pseudomonas aeruginosa; strain 068): 4 µg/mL (≈ 3.58 µM); MIC P. aeruginosa 070 (Pseudomonas aeruginosa; strain 070): 4 µg/mL (≈ 3.58 µM); MIC P. aeruginosa ATCC 27853 (Pseudomonas aeruginosa; strain ATCC 27853): 0.5 µg/mL (≈ 0.448 µM); MIC P. aeruginosa CCUG 59347 (Pseudomonas aeruginosa; strain CCUG 59347): 0.5 µg/mL (≈ 0.448 µM); MIC E. coli 058 (Escherichia coli; strain 058): 4 µg/mL (≈ 3.58 µM); MIC E. coli 061 (Escherichia coli; strain 061): 32 µg/mL (≈ 28.7 µM); MIC E. coli ATCC 25922 (Escherichia coli; strain ATCC 25922): 0.125 µg/mL (≈ 0.112 µM); MIC E. coli NCTC 9001 (Escherichia coli; strain NCTC 9001): 0.06 µg/mL (≈ 0.0537 µM); MIC K. pneumoniae 063 (Klebsiella pneumoniae; strain 063): 64 µg/mL (≈ 57.3 µM); MIC K. pneumoniae 065 (Klebsiella pneumoniae; strain 065): 4 µg/mL (≈ 3.58 µM); MIC K. pneumoniae ATCC 13882 (Klebsiella pneumoniae; strain ATCC 13882): 0.125 µg/mL (≈ 0.112 µM); HK-2 IC50 (HK-2 cells; HK-2 cells): 337 µg/mL

Second part, led by results:

Row | MIC A. baumanii 053 (Acinetobacter baumannii) | MIC A. baumanii 056 (Acinetobacter baumannii) | MIC A. baumanii ATCC BAA-747 (Acinetobacter baumannii) | MIC P. aeruginosa 068 (Pseudomonas aeruginosa) | MIC P. aeruginosa 070 (Pseudomonas aeruginosa) | MIC P. aeruginosa ATCC 27853 (Pseudomonas aeruginosa) | MIC E. coli 058 (Escherichia coli) | MIC E. coli 061 (Escherichia coli) | MIC E. coli ATCC 25922 (Escherichia coli) | MIC K. pneumoniae 063 (Klebsiella pneumoniae) | MIC K. pneumoniae ATCC 4352 (Klebsiella pneumoniae) | HK-2 IC50 (HK-2 cells) | MIC K. pneumoniae 065 (Klebsiella pneumoniae) | MIC A. baumanii NCTC 13424 (Acinetobacter baumannii) | MIC P. aeruginosa CCUG 59347 (Pseudomonas aeruginosa) | Structure (SMILES) | other results
6 | 4 µg/mL (≈ 3.2 µM) | 2 µg/mL (≈ 1.6 µM) | 1 µg/mL (≈ 0.8 µM) | 2 µg/mL (≈ 1.6 µM) | 2 µg/mL (≈ 1.6 µM) | 1 µg/mL (≈ 0.8 µM) | 1 µg/mL (≈ 0.8 µM) | 2 µg/mL (≈ 1.6 µM) | 1 µg/mL (≈ 0.8 µM) | 4 µg/mL (≈ 3.2 µM) | 1 µg/mL (≈ 0.8 µM) | 4 µg/mL | 1 µg/mL (≈ 0.8 µM) | 2 µg/mL (≈ 1.6 µM) | 2 µg/mL (≈ 1.6 µM) | CCCCCCCCN1CCNC[C@H]1C(=O)N[C@H](C(=O)N[C@@H](CN)C(=O)N[C@H]1CCNC(=O)[C@H]([C@@H](C)O)NC(=O)[C@H](CCN)NC(=O)[C@H](CCN)NC(=O)[C@H](CC(C)C)NC(=O)[C@@H](Cc2ccc(-c3ccccc3)cc2)NC(=O)[C@H](CCN)NC1=O)C(C)O (stereo partly drawn) [Example 30, (S)-1-Octylpiperazine-2-carbonyl L-Thr-L-Dap-polymyxin [D-(4-phenyl Phe)]-6 heptapeptide.] (X3-[Thr(3ξ)][Dap][Dab][Dab][dBip]L[Dab][Dab]T; lactam 3-C) | MIC K. pneumoniae ATCC 13882 (Klebsiella pneumoniae): 1 µg/mL (≈ 0.8 µM)
7 | 32 µg/mL (≈ 27.1 µM) | 32 µg/mL (≈ 27.1 µM) | 0.125 µg/mL (≈ 0.106 µM) | 4 µg/mL (≈ 3.39 µM) | 4 µg/mL (≈ 3.39 µM) | 0.25 µg/mL (≈ 0.212 µM) | 2 µg/mL (≈ 1.69 µM) | 16 µg/mL (≈ 13.5 µM) | 0.125 µg/mL (≈ 0.106 µM) | 16 µg/mL (≈ 13.5 µM) |  | 52 µg/mL | 2 µg/mL (≈ 1.69 µM) | 0.125 µg/mL (≈ 0.106 µM) | 0.25 µg/mL (≈ 0.212 µM) | CC(C)C[C@@H]1NC(=O)[C@@H](CC2CCCCC2)NC(=O)[C@H](CCN)NC(=O)[C@@H](NC(=O)[C@H](CN)NC(=O)[C@@H](NC(=O)[C@H](CCN)OCc2ccc(Cl)cc2)[C@@H](C)O)CCNC(=O)[C@H]([C@@H](C)O)NC(=O)[C@H](CCN)NC(=O)[C@H](CCN)NC1=O [Example 74, (S)-4-amino-2-((4-chlorobenzyl)oxy) butanoyl L-Thr-L-Dap-polymyxin [D-cyclohexylalanine]-6 heptapeptide.] (X13-T[Dap][Dab][Dab][dCha]L[Dab][Dab]T; lactam 3-C) | MIC K. pneumoniae ATCC 13882 (Klebsiella pneumoniae): 0.25 µg/mL (≈ 0.212 µM)
